Patent publication US20210275545A1, “METHOD OF TREATING CANCER PREFERABLY CHARACTERIZED BY EXPRESSION OF A FUSION PROTEIN COMPRISING A MEMBER OF THE E-TWENTY-SIX FAMILY BY ADMINISTERING AN AGENT THAT INHIBITS THE SYNTHESIS AND/OR ACTIVITY OF CORTISOL” (Yeda Research and Development Co. Ltd., priority 2018, published 2021)

Tests used:
GR and ERG [1] = molecular target: T1, GR and ERG (Homo sapiens, UniProt P04150)
Procedure: (§1) (A) The scheme presents the full length Gaussia luciferase protein, along with either the amino-terminal segment (Gluc1), which was fused to an ETS family transcription factor, or the carboxyl terminal segment (Gluc2), which was fused to GR. Amino acid numbers are indicated. cDNAs encoding most members of the ETS family (16 members altogether) were cloned downstream to Gluc1. […] (B) HEK-293T cells (6×10^3) were seeded in 96-well plates. On the next day, cells were transfected with combinations of the Gluc1 plasmid, encoding a fused ETS family member, and the Gluc2 plasmid encoding a fused full-length GR. […] Cells were then lysed and luminescence was determined in biological triplicates. […] (D and E) HEK-293T cells were seeded in 100-mm dishes. Once they reached sub-maximal density (70%), cells were starved overnight for serum factors. […] Cell extracts were then processed for co-immunoprecipitation assays, in which the endogenous FLI1 or ERG protein was immunoprecipitated using a specific antibody, and immunoblotting was performed using an antibody against GR. EB, empty beads; C, solvent control. Images shown are representative of three biological replicates.
Proximity ligation assay (PLA), extraction of cells, co-immunoprecipitation and cell migration/invasion assays: These assays were performed exactly as recently reported.

MR and ERG = molecular target: T2, MR and ERG (Homo sapiens, UniProt P08235); test: PCA, Gluc1-ERG + MR-Gluc2; format: cell-based; conditions: DEX 1 μM, 60 minutes
T2 construct: expressed in transfected cells; host or cells: HEK-293T
T2 sequence (P08235 1-984): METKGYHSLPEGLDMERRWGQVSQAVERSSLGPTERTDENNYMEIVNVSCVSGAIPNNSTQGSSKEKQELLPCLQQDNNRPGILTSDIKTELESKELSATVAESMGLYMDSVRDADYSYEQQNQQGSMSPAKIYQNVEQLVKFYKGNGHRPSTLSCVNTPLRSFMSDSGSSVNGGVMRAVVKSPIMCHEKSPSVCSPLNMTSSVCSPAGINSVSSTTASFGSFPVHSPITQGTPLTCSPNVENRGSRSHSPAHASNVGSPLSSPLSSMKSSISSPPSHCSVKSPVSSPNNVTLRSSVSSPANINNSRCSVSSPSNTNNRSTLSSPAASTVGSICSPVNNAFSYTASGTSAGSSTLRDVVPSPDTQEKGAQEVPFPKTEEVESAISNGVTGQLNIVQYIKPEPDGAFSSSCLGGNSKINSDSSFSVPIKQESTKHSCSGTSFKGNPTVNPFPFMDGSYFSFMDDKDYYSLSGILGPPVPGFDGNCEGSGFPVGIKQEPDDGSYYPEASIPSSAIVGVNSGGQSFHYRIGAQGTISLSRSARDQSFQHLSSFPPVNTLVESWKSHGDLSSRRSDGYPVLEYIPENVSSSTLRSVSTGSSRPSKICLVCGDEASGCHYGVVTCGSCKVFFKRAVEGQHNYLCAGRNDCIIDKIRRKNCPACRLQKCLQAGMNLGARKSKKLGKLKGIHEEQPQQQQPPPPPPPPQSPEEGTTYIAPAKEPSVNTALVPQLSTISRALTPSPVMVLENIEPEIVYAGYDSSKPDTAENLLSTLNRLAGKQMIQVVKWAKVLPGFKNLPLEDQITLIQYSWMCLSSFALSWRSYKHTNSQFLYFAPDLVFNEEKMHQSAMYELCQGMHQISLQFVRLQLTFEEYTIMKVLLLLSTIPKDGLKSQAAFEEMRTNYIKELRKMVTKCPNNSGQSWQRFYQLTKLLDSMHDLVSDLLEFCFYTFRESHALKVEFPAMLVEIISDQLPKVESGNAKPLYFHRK
T2 sequence (P11308 1-486 isoform P11308-3 partner): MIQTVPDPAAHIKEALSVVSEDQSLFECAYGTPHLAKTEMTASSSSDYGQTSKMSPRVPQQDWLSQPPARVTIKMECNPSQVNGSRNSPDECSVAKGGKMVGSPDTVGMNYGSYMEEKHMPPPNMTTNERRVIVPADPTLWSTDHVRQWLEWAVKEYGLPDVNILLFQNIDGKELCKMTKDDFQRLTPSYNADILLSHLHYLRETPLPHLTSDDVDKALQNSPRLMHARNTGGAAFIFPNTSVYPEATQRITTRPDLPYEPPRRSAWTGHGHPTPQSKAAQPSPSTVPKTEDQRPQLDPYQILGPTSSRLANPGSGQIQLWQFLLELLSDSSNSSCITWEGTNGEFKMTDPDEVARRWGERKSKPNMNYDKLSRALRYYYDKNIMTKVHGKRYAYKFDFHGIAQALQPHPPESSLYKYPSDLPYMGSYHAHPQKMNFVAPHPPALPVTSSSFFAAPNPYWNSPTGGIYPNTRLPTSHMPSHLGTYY
Procedure: Cells were then lysed and luminescence was determined.

[2] = test system: glucocorticoid response element (GRE); conditions: naïve cells, endogenous GR; 100 nM, 24 hours
Procedure: HEK-293T cells (1.2×10^4) were seeded in 48-well plates. […] In addition, cells were co-transfected with increasing amounts of a GR expression vector (A), a FLI1-encoding vector (B) or with a combination of both a FLI1 vector and a vector encoding GR, either wild type (C) or a mutant receptor (GRdim−, panel D). Luciferase activity was determined, in biological triplicates, 48 hours later and presented in bar plots. Cells that were pre-transfected with the reporter plasmid were used for normalization. *, p≤0.05; ***, p≤0.001. […] This was followed by cell lysis and determination of luciferase activity in biological triplicates.
Luciferase-reporter assays: Cells were co-transfected with a luciferase plasmid containing the consensus glucocorticoid response element (GRE) along with pGL3-Control (Promega, Madison, Wis.). Luciferase activity was determined using the dual-luciferase reporter assay system (Promega). Firefly luciferase luminescence values were normalized to Renilla luminescence.

GR and ERG [3] = molecular target: T1, GR and ERG; remark: listed apart in the source
Procedure: as §1
(A) HEK-293T cells (6×10^3) were seeded in 96-well plates. On the next day, the cells were transfected with combinations of the Gluc1 plasmid, encoding fused FLI1 or ERG, and the Gluc2 plasmid encoding GR. […] Cells were then lysed and luminescence was determined in each sample. Luminescence of vehicle-treated cells was used for normalization. […] (B) HEK-293T cells were seeded on coverslips in 6-well plates. […] Images were processed using the Zeiss ZEN2011 software. […] Bars, 20 μm.
Protein-fragment complementation assays (PCA): PCA was performed as previously described.

A673 tumors = test: Immunoblotting of A673 tumor extracts; format: in vivo, SCID mice
Procedure: FIGS. 13A-B: A GR antagonist and a cortisol-lowering drug induce markers of cell death in animal models of Ewing's sarcoma. (A) RD-ES tumors presented in FIG. 6A were extracted and analyzed using immunoblotting and the indicated antibodies. Note that tumors from three different mice per group were analyzed. (B) Whole extracts prepared from the tumors presented in FIG. 6D were analyzed using immunoblotting and the indicated antibodies. Note that tumors from three different mice per group were analyzed.
ES animal model studies: All animal experiments were approved by the Weizmann Institute's Animal Care and Use Committee. RD-ES cells and A673 cells (2.5×10^6) were inoculated subcutaneously in the right legs of female SCID mice (6 weeks old). Tumor growth was monitored once every 3 days using a caliper. […] Mice were euthanized when tumor size reached 800-900 mm^3. For metastasis assays, luciferase-labeled TC-71 cells (10^6) were injected orthotopically into the tibia of female SCID mice. Once the primary tumor reached the allowed size limit, we excised the lungs and examined metastases using luciferase bioluminescence imaging.

A673 xenograft = A673 xenograft tumor growth; format: in vivo, SCID mice; conditions: 25 mg/kg daily
Excerpt: FIGS. 6A-E. A GR antagonist and a cortisol-lowering drug impede growth of human xenograft models of Ewing's sarcoma. (A) RD-ES cells (2×10^6) were implanted subcutaneously in the right flank of SCID mice. […] The means of tumor volumes (+SEM) are shown. […] (B) Shown are representative images of immunofluorescent staining for KI67 in paraffin-embedded sections of tumors from A, using an antibody against KI67. Scale bars, 100 μm. Also shown is the scatter plot depicting quantification of KI67 staining in randomly selected 4 fields of a representative tumor from each group. […] (C and D) A673 cells (2×10^6) were implanted in female SCID mice. […] Each group was daily treated with either vehicle, or Metyrapone (25 mg/kg) and tumorigenic growth was monitored. Actual tumor volumes (±SEM) are presented. Also shown are tumors harvested from each group of animals; **p<0.001. (E) TC-71 cells (10^6) engineered to stably express luciferase were injected into the tibia of female SCID mice (5 weeks old; 7 mice per group). […] The control group was similarly treated with the solvent (0.1% tween 80). When the primary tumor reached 10% of body weight, the lungs were excised and examined for metastasis using luciferase bioluminescence imaging. […] Luminescence was quantified and presented in a bar graph. […] Tumor growth was monitored once every 3 days using a caliper. […]

T1 sequence (P04150 whole entry, the tested form may be a part): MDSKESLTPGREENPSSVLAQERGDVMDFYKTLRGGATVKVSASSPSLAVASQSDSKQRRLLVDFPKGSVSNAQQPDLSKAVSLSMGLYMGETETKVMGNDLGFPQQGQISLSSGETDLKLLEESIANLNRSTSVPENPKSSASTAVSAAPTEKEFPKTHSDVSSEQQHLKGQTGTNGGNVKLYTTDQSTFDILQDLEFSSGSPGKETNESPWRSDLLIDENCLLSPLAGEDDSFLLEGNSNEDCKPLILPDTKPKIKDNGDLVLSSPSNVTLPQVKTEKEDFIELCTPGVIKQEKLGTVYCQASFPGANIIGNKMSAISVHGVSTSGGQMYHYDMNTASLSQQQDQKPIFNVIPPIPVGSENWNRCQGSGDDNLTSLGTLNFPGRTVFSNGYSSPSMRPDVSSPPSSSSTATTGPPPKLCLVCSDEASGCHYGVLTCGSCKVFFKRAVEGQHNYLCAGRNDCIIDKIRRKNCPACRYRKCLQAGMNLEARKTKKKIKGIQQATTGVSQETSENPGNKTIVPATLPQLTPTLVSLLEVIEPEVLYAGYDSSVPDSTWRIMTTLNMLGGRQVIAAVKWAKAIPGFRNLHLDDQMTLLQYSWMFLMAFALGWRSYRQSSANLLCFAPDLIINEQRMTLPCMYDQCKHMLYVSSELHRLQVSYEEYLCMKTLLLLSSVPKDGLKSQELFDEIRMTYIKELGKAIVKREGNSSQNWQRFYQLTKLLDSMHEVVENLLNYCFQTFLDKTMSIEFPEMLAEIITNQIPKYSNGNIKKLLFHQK

Structure (SMILES) | co-immunoprecipitation of GR and ERG (GR and ERG [1]) | interaction between MR and ERG (PCA) (MR and ERG) | increase of GRE activity (luciferase) [2] [fold] | luciferase activity (PCA), GR-ERG interaction (GR and ERG [3]) | time of peak of GR-ERG signals after stimulation (PCA) (GR and ERG [3]) | γH2AX in tumors (A673 tumors) | tumor growth rates (A673 xenograft)
C[C@@H]1C[C@H]2[C@@H]3CCC4=CC(=O)C=C[C@]4(C)[C@@]3(F)[C@@H](O)C[C@]2(C)[C@@]1(O)C(=O)CO [DEX, dexamethasone] | enhanced | stimulated strong interactions | 40 | highly significant increases | peaked earlier |  | 
CC(C)(C(=O)c1cccnc1)c1cccnc1 [metyrapone] |  |  |  |  |  | elevated | clear and statistically significant decrease
